Reference: ChEMBL document CHEMBL4196231, “Peptidomimetics for Targeting Protein-Protein Interactions between DOT1L and MLL Oncofusion Proteins AF9 and ENL” (ACS Med Chem Lett, 2018)
Square brackets hold non-standard residues; d marks the D form. Peptide text beside a SMILES is read from it. * marks the point of attachment. X3 = c1ccc(-c2cn(CC3CCCCC3)c([C@@H]3CCCN3*)n2)cc1; X2 = CC(C)n1cc(-c2ccccc2)nc1[C@@H]1CCCN1*; X1 = CCn1cc(-c2ccccc2)nc1[C@@H]1CCCN1*; 1Nal = N[C@@H](Cc1cccc2ccccc12)C(=O)O; 2Nal = N[C@@H](Cc1ccc2ccccc2c1)C(=O)O; X4 = Cn1cc(-c2ccccc2)nc1[C@@H]1CCCN1*; Ala(cPent) = N[C@@H](CC1CCCC1)C(=O)O; Gly(cPent) = N[C@H](C(=O)O)C1CCCC1; Ala(cPr) = N[C@@H](CC1CC1)C(=O)O; Pentanoyl(4-Me) = CC(C)CCC(=O)*; Cha = N[C@@H](CC1CCCCC1)C(=O)O; Cba = N[C@@H](CC1CCC1)C(=O)O; Chg = N[C@H](C(=O)O)C1CCCCC1; Orn = NCCC[C@H](N)C(=O)O; Dap = NC[C@H](N)C(=O)O; Bz = O=C(c1ccccc1)*

How the values were obtained:
[1] = target: T1, Protein AF-9 (Homo sapiens, UniProt P42568); assay: Displacement of N-Flu-DOT1L from MBP-tagged AF9 (unknown origin) (487 to 568 residues) expressed in Escherichia coli BL21(DE3) measured after 3 hrs by fluorescence polarization assay
T1 sequence (P42568 whole entry): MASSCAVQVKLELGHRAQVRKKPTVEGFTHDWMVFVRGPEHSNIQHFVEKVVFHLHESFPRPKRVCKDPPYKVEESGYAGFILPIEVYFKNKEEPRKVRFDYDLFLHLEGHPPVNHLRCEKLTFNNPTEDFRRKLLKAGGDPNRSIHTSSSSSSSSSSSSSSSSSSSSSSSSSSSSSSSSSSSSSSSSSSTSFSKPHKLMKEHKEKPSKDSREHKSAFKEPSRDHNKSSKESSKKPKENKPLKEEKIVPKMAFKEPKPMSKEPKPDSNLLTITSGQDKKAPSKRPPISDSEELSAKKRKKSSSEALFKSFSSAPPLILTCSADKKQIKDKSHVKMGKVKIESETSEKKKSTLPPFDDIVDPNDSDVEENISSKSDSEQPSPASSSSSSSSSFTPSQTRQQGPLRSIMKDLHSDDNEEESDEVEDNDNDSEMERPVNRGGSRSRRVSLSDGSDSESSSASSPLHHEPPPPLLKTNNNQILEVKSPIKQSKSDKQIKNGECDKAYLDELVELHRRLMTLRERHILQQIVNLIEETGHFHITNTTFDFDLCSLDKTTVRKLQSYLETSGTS

[2] = target: T2, Protein ENL (Homo sapiens, UniProt Q03111); assay: Displacement of N-Flu-DOT1L from MBP-tagged ENL (unknown origin) (489 to 559 residues) expressed in Escherichia coli BL21(DE3) measured after 3 hrs by fluorescence polarization assay
T2 sequence (Q03111 whole entry): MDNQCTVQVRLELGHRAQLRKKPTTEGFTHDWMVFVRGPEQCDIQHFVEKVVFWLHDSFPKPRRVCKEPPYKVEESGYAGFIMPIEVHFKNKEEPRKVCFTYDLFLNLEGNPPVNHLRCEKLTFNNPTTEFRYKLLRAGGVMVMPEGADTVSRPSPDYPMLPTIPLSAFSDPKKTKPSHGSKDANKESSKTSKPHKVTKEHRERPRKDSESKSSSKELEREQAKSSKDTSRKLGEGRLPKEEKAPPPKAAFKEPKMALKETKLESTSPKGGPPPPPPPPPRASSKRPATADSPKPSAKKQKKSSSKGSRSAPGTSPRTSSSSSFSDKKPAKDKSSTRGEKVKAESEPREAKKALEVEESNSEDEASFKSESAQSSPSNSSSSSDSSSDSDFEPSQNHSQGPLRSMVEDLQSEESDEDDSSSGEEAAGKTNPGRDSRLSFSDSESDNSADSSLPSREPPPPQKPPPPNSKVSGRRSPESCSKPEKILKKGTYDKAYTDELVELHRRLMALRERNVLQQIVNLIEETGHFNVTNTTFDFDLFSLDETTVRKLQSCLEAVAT

SMILES	IC50 [1]	Ki [1]	IC50 [2]	Ki [2]
CC[C@H](C)[C@H](NC(=O)[C@H](CO)NC(=O)[C@H](Cc1ccccc1)NC(=O)[C@@H]1CCCN1C(=O)[C@H](CC(C)C)NC(C)=O)C(=O)N1CCC[C@H]1C(=O)N[C@@H](CC(C)C)C(=O)N(C)C (Ac-LPFSIPL-NMe2)	30500 nM	5620 nM	177000 nM	62000 nM
CC[C@H](C)[C@H](NC(=O)[C@@H]1CCCN1C(=O)[C@H](CC(C)C)NC(C)=O)C(=O)N[C@@H](CO)C(=O)N[C@@H](Cc1ccccc1)C(=O)N1CCC[C@H]1C(=O)N[C@@H](CC(C)C)C(=O)N(C)C (Ac-LPISFPL-NMe2)	1660 nM	280 nM	22700 nM	7730 nM
CC[C@H](C)[C@H](NC(=O)[C@@H]1CCCN1C(=O)[C@H](CC(C)C)NC(C)=O)C(=O)N[C@@H](CO)C(=O)N[C@H](C(=O)N1CCC[C@H]1C(=O)N[C@@H](CC(C)C)C(=O)N(C)C)[C@@H](C)CC (Ac-LPISIPL-NMe2)	1780 nM	300 nM	6830 nM	2150 nM
CC[C@H](C)[C@H](NC(=O)[C@@H]1CCCN1C(=O)[C@H](CC(C)C)NC(C)=O)C(=O)N[C@@H](CO)C(=O)N[C@@H](CC(C)C)C(=O)N1CCC[C@H]1C(=O)N[C@@H](CC(C)C)C(=O)N(C)C (Ac-LPISLPL-NMe2)	4660 nM	830 nM	18600 nM	6290 nM
CC[C@H](C)[C@H](NC(=O)[C@@H]1CCCN1C(=O)[C@H](CC(C)C)NC(C)=O)C(=O)N[C@@H](CO)C(=O)N[C@@H](Cc1c[nH]c2ccccc12)C(=O)N1CCC[C@H]1C(=O)N[C@@H](CC(C)C)C(=O)N(C)C (Ac-LPISWPL-NMe2)	2370 nM	410 nM	7420 nM	2350 nM
CC[C@H](C)[C@H](NC(=O)[C@@H]1CCCN1C(=O)[C@H](CC(C)C)NC(C)=O)C(=O)N[C@@H](CO)C(=O)N[C@@H](Cc1cccc2ccccc12)C(=O)N1CCC[C@H]1C(=O)N[C@@H](CC(C)C)C(=O)N(C)C (Ac-LPIS[1Nal]PL-NMe2)	14200 nM	2600 nM	57800 nM	20100 nM
CC[C@H](C)[C@H](NC(=O)[C@@H]1CCCN1C(=O)[C@H](CC(C)C)NC(C)=O)C(=O)N[C@@H](CO)C(=O)N[C@@H](Cc1ccc2ccccc2c1)C(=O)N1CCC[C@H]1C(=O)N[C@@H](CC(C)C)C(=O)N(C)C (Ac-LPIS[2Nal]PL-NMe2)	4110 nM	730 nM	42200 nM	14600 nM
CC[C@H](C)[C@H](NC(=O)[C@@H]1CCCN1C(=O)[C@H](CC(C)C)NC(C)=O)C(=O)N[C@@H](CO)C(=O)N[C@@H](CC1CCCC1)C(=O)N1CCC[C@H]1C(=O)N[C@@H](CC(C)C)C(=O)N(C)C (Ac-LPIS[Ala(cPent)]PL-NMe2)	850 nM	130 nM	2170 nM	510 nM
CC[C@H](C)[C@H](NC(=O)[C@@H]1CCCN1C(=O)[C@H](CC(C)C)NC(C)=O)C(=O)N[C@@H](CO)C(=O)N[C@@H](CC1CCCCC1)C(=O)N1CCC[C@H]1C(=O)N[C@@H](CC(C)C)C(=O)N(C)C (Ac-LPIS[Cha]PL-NMe2)	1140 nM	180 nM	6060 nM	1880 nM
CC[C@H](C)[C@H](NC(=O)[C@@H]1CCCN1C(=O)[C@H](CC(C)C)NC(C)=O)C(=O)N[C@@H](CO)C(=O)N[C@H](C(=O)N1CCC[C@H]1C(=O)N[C@@H](CC(C)C)C(=O)N(C)C)C1CCCCC1 (Ac-LPIS[Chg]PL-NMe2)	3490 nM	620 nM	10500 nM	3440 nM
CC[C@H](C)[C@H](NC(=O)[C@@H]1CCCN1C(=O)[C@H](CC(C)C)NC(C)=O)C(=O)N[C@@H](CO)C(=O)N[C@H](C(=O)N1CCC[C@H]1C(=O)N[C@@H](CC(C)C)C(=O)N(C)C)C1CCCC1 (Ac-LPIS[Gly(cPent)]PL-NMe2)	1490 nM	250 nM	4540 nM	1340 nM
CC[C@H](C)[C@H](NC(=O)[C@@H]1CCCN1C(=O)[C@H](CC(C)C)NC(C)=O)C(=O)N[C@@H](CN)C(=O)N[C@H](C(=O)N1CCC[C@H]1C(=O)N[C@@H](CC(C)C)C(=O)N(C)C)[C@@H](C)CC (Ac-LPI[Dap]IPL-NMe2)	1200 nM	190 nM	4250 nM	1240 nM
CC[C@H](C)[C@H](NC(=O)[C@@H]1CCCN1C(=O)[C@H](CC(C)C)NC(C)=O)C(=O)N[C@@H](CN)C(=O)N[C@@H](CC1CCCC1)C(=O)N1CCC[C@H]1C(=O)N[C@@H](CC(C)C)C(=O)N(C)C (Ac-LPI[Dap][Ala(cPent)]PL-NMe2)	120 nM	20 nM	390 nM	90 nM
CC[C@H](C)[C@H](NC(=O)[C@@H]1CCCN1C(=O)[C@H](CC(C)C)NC(C)=O)C(=O)N[C@@H](CCCN)C(=O)N[C@H](C(=O)N1CCC[C@H]1C(=O)N[C@@H](CC(C)C)C(=O)N(C)C)[C@@H](C)CC (Ac-LPI[Orn]IPL-NMe2)	24300 nM	4250 nM	172000 nM	60200 nM
CC[C@H](C)[C@H](NC(=O)[C@H](CO)NC(=O)[C@H](CC(C)C)NC(=O)[C@@H]1CCCN1C(=O)[C@H](CC(C)C)NC(C)=O)C(=O)N1CCC[C@H]1C(=O)N[C@@H](CC(C)C)C(=O)N(C)C (Ac-LPLSIPL-NMe2)	6400 nM	1160 nM	43900 nM	15200 nM
CC[C@H](C)[C@H](NC(=O)[C@H](CO)NC(=O)[C@@H](NC(=O)[C@@H]1CCCN1C(=O)[C@H](CC(C)C)NC(C)=O)C(C)C)C(=O)N1CCC[C@H]1C(=O)N[C@@H](CC(C)C)C(=O)N(C)C (Ac-LPVSIPL-NMe2)	1100 nM	170 nM	3600 nM	1010 nM
CCn1cc(-c2ccccc2)nc1[C@@H]1CCCN1C(=O)[C@H](CC1CCCC1)NC(=O)[C@H](CN)NC(=O)[C@@H](NC(=O)[C@@H]1CCCN1C(=O)[C@H](CC(C)C)NC(C)=O)C(C)C (Ac-LPV[Dap][Ala(cPent)]-X1)	341 nM	50 nM	1570 nM	369 nM
CC(=O)N[C@@H](CC(C)C)C(=O)N1CCC[C@H]1C(=O)N[C@H](C(=O)N[C@@H](CN)C(=O)N[C@@H](CC1CCCC1)C(=O)N1CCC[C@H]1c1nc(-c2ccccc2)cn1C(C)C)C(C)C (Ac-LPV[Dap][Ala(cPent)]-X2)	369 nM	57 nM	1220 nM	287 nM
CC(=O)N[C@@H](CC(C)C)C(=O)N1CCC[C@H]1C(=O)N[C@H](C(=O)N[C@@H](CN)C(=O)N[C@@H](CC1CCCC1)C(=O)N1CCC[C@H]1c1nc(-c2ccccc2)cn1CC1CCCCC1)C(C)C (Ac-LPV[Dap][Ala(cPent)]-X3)	82 nM	13 nM	427 nM	101 nM
CC(=O)N[C@@H](CC(C)C)C(=O)N1CCC[C@H]1C(=O)N[C@H](C(=O)N[C@@H](CN)C(=O)N[C@@H](CC1CCCC1)C(=O)N1CCC[C@H]1c1nc(-c2ccccc2)cn1C)C(C)C (Ac-LPV[Dap][Ala(cPent)]-X4)	372 nM	57 nM	1770 nM	417 nM
CC[C@H](C)[C@H](NC(=O)[C@H](CO)NC(=O)[C@H](CC1CC1)NC(=O)[C@@H]1CCCN1C(=O)[C@H](CC(C)C)NC(C)=O)C(=O)N1CCC[C@H]1C(=O)N[C@@H](CC(C)C)C(=O)N(C)C (Ac-LP[Ala(cPr)]SIPL-NMe2)	4290 nM	780 nM	14600 nM	4890 nM
CC[C@H](C)[C@H](NC(=O)[C@H](CO)NC(=O)[C@H](CC1CCC1)NC(=O)[C@@H]1CCCN1C(=O)[C@H](CC(C)C)NC(C)=O)C(=O)N1CCC[C@H]1C(=O)N[C@@H](CC(C)C)C(=O)N(C)C (Ac-LP[Cba]SIPL-NMe2)	7230 nM	1310 nM	23600 nM	8040 nM
CC(C)[C@H](NC(=O)[C@@H]1CCCN1C(=O)c1ccccc1)C(=O)N[C@@H](CN)C(=O)N[C@@H](CC1CCCC1)C(=O)N1CCC[C@H]1c1nc(-c2ccccc2)cn1CC1CCCCC1 (Bz-PV[Dap][Ala(cPent)]-X3)	57 nM	9 nM	504 nM	119 nM
CC(C)CCC(=O)N1CCC[C@H]1C(=O)N[C@H](C(=O)N[C@@H](CN)C(=O)N[C@@H](CC1CCCC1)C(=O)N1CCC[C@H]1c1nc(-c2ccccc2)cn1CC1CCCCC1)C(C)C ({Pentanoyl(4-Me)}-PV[Dap][Ala(cPent)]-X3)	149 nM	23 nM	237 nM	56 nM
